Source: patent US4837228A, “Antiinflammatory and antimicrobial compounds and compositions” (The University of Mississippi, priority 1982, dated 1989)
In brackets after ≈: the same amount, converted by molar mass. Several values for one entry are separate records, joined by “and”; a condition that tells them apart may be missing. Equal values may be shown once. Read-outs that look alike come from different tables or passages of the source.

Key:
Candida albicans [1] = assay: MIC, two-fold (broth) serial dilution, C. albicans; type: cell-based
Method: (§1) Both qualitative and quantitative screens were performed. Qualitative screening was accomplished using the agar well diffusion assay technque while quantitative screening was accomplished by the two-fold (broth) serial dilution method to determine the minimum inhibitory concentration (MIC). Innoculation was accomplished with one loop-full of a 1:10 dilution of the 24-hour-old broth culture, (fungal cultures and M.smegmatis more often required 48 to 72 hours of incubation) of the test organisms in sterile water. Streptomycin sulfate was used as a positive control for antibacterial activity while amphitericin B was used as an antifungal positive control. Organisms utilized in the screens included gram-positive, gram-negative, and acid-fast bacteria as well as different types of fungi. […] An intermediate type activity is seen where R is hydrogen. However, where R is lengthened up to C15 a decrease in activity was noted. Total saturation of the two double bonds in the compounds having a methyl side chain lead, in most cases, to an increase in both antifungal and antibacterial activity.

[2] = test system: Trichophyton mentagrophytes; assay: MIC, two-fold (broth) serial dilution, T. mentagrophytes; type: cell-based
Method: as §1

Mycobacterium smegmatis [3] = assay: MIC, two-fold (broth) serial dilution, M. smegmatis; type: cell-based; settings: 24 hr
Method: as §1

Saccharomyces cerevisiae [4] = assay: MIC, two-fold (broth) serial dilution, S. cerevisiae; type: cell-based
Method: as §1

[5] = test system: Trichophyton mentagrophytes; assay: agar well diffusion assay, T. mentagrophytes; type: cell-based; settings: for agar well diffusion result in words: one entry across 48 hr and 72 hr; for width of inhibition zone: from edge of agar well
Method: as §1

Bacillus subtilis [6] = assay: agar well diffusion assay, B. subtilis; type: cell-based; settings: from edge of agar well
Method: as §1

Mycobacterium smegmatis [7] = assay: agar well diffusion assay, M. smegmatis; type: cell-based; settings: from edge of agar well
Method: as §1

Pseudomonas aeruginosa = assay: agar well diffusion assay, Ps. aeruginosa; type: cell-based; settings: from edge of agar well
Method: as §1

Staphylococcus aureus [8] = assay: MIC, two-fold (broth) serial dilution, S. aureus; type: cell-based; settings: 48 hr
Method: as §1

Candida albicans [9] = assay: agar well diffusion assay, C. albicans; type: cell-based; settings: from edge of agar well
Method: as §1

Aspergillus niger = assay: agar well diffusion assay, A. niger; type: cell-based; settings: from edge of agar well
Method: as §1

Staphylococcus aureus [10] = assay: agar well diffusion assay, S. aureus; type: cell-based; settings: from edge of agar well
Method: as §1

Bacillus subtilis [11] = assay: MIC, two-fold (broth) serial dilution, B. subtilis; type: cell-based
Method: as §1

Escherichia coli = assay: agar well diffusion assay, E. coli; type: cell-based; settings: from edge of agar well
Method: as §1

Saccharomyces cerevisiae [12] = assay: agar well diffusion assay, S. cerevisiae; type: cell-based; settings: from edge of agar well
Method: as §1

[13] = test system: carrageenan-induced rat paw edema; assay: carrageenan-induced rat paw edema test, intraperitoneal dosing; type: in vivo; settings: Table 5, * P = 0.01
Method: Two methods were used to assess the antiinflammatory activity of the compounds of the invention: the carrageenan-induced rat paw edema test and, the erythrocyte membrane stabilization assay.
In the Rat Paw Edema Test, the rats utilized were divided into test groups of six to eight animals, weighed and marked so that individual rats could be identified; one hour before testing all rats were given a 700 mg/kg intraperitoneal injection of ethyl urethane in distilled water to render them tractable during testing. A circle was drawn, with a felt-tipped marker, around the hind leg of each rat just above the ankle, and each rat was dosed with a test or control compound by intraperitoneal injection. Negative control groups received the vehicle; while positive control groups received a dose of phenylbutazone (PBZ) as shown in Table II. Test compounds were given at doses of 60, 120, 240 and 480 mg/kg. The positive controls were given at 120 mg/kg and 60 mg/kg. Phenylbutazone was prepared for injection by suspending it in normal saline using Tween 60. The rats were then held in group cages for 30 minutes. The volume of the left hind paw was measured using a mercury displacement pleysmograph. The paw is dipped into the mercury until the mercury touches the line above the ankle. Mercury is then withdrawn until the mercury returns to its original level. The amount of mercury removed is measured in milliliters (ml). The mercury can be measured accurately to 0.01 ml. This left hind paw was then injected with 0.1 ml of a 5% w/v solution of viscous carageenan in normal saline. The injection was given between the metatarsal bones using a 27 gauge needle, and the rats then held in group cages for 3 hours. The volume of the left hind paws was measured again in the pleysmograph. The results were computed in the following manner:
a. A mean is taken for both the pre-injection and post-injection paw volume of each test group.
b. The mean difference in volume (MDV) for each test group is computed by subtracting the pre-injection means from the post-injection mean.
c. The percent of control is computed for each test [formula] The percent of control is used to compare the efficacy of the various drug treatments.
d. The percent increase in paw volume is calculated for each group as: [formula] The percent increase is used to compare the amount of edma observed in one experiment to the amount of edma observed in other experiments.
The data from the rat paw test were further analyzed using a one-way analysis of varience (ANOVA) and Duncan's New Multiple Range Test. The pre-injection score of each animal was subtracted from his post-injection score and an analysis of the different scores were conducted.
The procedure described above was followed. […] The vehicle control used was Tween 60, Arlacel and distilled water prepared without CBC(II).

[14] = test system: erythrocyte (heat-induced hemolysis); assay: erythrocyte membrane stabilization assay (heat-induced erythrocyte hemolysis); type: cell-based; settings: Erythrocyte; for inhibition at 250 µM: 2.5 × 10^-4 M
Method: The published procedure (Proc. Soc. Exp. Biol. Med. 1967; 125; 837-842 Brow et al) for in vitro assay for antiinflammatory agents based on stabilization of erythrocytes was used. All compounds were prepared for administration by dissolving in physiologic saline or suspending in 2% ethanol in saline and the pH adjusted to 7.4 The concentrations tested in one series are given in Table 8. Aspirin (ASA) and phenylbutazone were used as positive controls for comparison of activity. Tests using this procedure were successfully and repeatedly using either 40% or 20% RBC suspensions.

2-methyl-2(4'-methyl-pent-3'-enyl)-5-hydroxy-7-pent-dec-8'-enyl chromene [CBC (VIII)]
MIC (Candida albicans [1]; 48 hr): 50 µg/mL
MIC (Candida albicans [1]; 72 hr): 100 µg/mL
MIC ([2]; 48 hr): 25 µg/mL
MIC ([2]; 72 hr): 50 µg/mL
MIC (Mycobacterium smegmatis [3]): 12.5 µg/mL and 25 µg/mL
MIC (Saccharomyces cerevisiae [4]; 48 hr): 100 µg/mL
MIC (Saccharomyces cerevisiae [4]; 72 hr): 100 µg/mL

2-methyl-2(4'-methyl-pentyl)-5-hydroxy-7-methyl chroman [CBC (V)]
agar well diffusion result in words [5]: No growth
width of inhibition zone (Bacillus subtilis [6]; 24 hr): 16.0 mm
width of inhibition zone (Bacillus subtilis [6]; 48 hr): 9.0 mm
width of inhibition zone (Mycobacterium smegmatis [7]; 24 hr): 25. mm
width of inhibition zone (Mycobacterium smegmatis [7]; 48 hr): 25. mm
width of inhibition zone (Pseudomonas aeruginosa; 24 hr): 4. mm
width of inhibition zone (Pseudomonas aeruginosa; 48 hr): 3. mm
MIC (Staphylococcus aureus [8]): 3.12 µg/mL
width of inhibition zone (Candida albicans [9]; 48 hr): 3.0 mm
width of inhibition zone (Candida albicans [9]; 72 hr): 3.0 mm
width of inhibition zone (Aspergillus niger; 48 hr): 3. mm
width of inhibition zone (Aspergillus niger; 72 hr): 3. mm
width of inhibition zone (Staphylococcus aureus [10]; 24 hr): 25. mm
width of inhibition zone (Staphylococcus aureus [10]; 48 hr): 25. mm
MIC (Bacillus subtilis [11]; 24 hr): 3.12 µg/mL and 1.56 µg/mL
MIC (Bacillus subtilis [11]; 48 hr): 3.12 µg/mL and 1.56 µg/mL
width of inhibition zone (Escherichia coli; 24 hr): 5. mm
width of inhibition zone (Escherichia coli; 48 hr): 5. mm
width of inhibition zone (Saccharomyces cerevisiae [12]; 48 hr): 22. mm
width of inhibition zone (Saccharomyces cerevisiae [12]; 72 hr): 22. mm
inhibition of carrageenan-induced rat paw edema ([13]; 60 mg/kg i.p.): 53%
inhibition of carrageenan-induced rat paw edema ([13]; 120 mg/kg i.p.): 63%
inhibition of carrageenan-induced rat paw edema ([13]; 240 mg/kg i.p.): 92%
MIC (Mycobacterium smegmatis [3]): 3.12 µg/mL
MIC (Saccharomyces cerevisiae [4]; 48 hr): 6.25 µg/mL and 12.5 µg/mL
MIC (Saccharomyces cerevisiae [4]; 72 hr): 12.5 µg/mL

C[C@@H]1[C@H](O)[C@@H](C)/C=C/C=C/C=C/C=C/C=C/C=C/C=C/[C@H](O[C@@H]2O[C@H](C)[C@@H](O)[C@H](N)[C@@H]2O)C[C@@H]2O[C@](O)(C[C@@H](O)C[C@@H](O)[C@H](O)CC[C@@H](O)C[C@@H](O)CC(=O)O[C@H]1C)C[C@H](O)[C@H]2C(=O)O [Amphotericin B, reference compound]
width of inhibition zone ([5]; 48 hr): 4. mm
width of inhibition zone ([5]; 72 hr): 4. mm
agar well diffusion result in words [5]: No growth
width of inhibition zone (Candida albicans [9]; 48 hr): 7. mm and 5. mm
MIC (Candida albicans [1]; 72 hr): 25 µg/mL (≈ 27.1 µM)
width of inhibition zone (Aspergillus niger; 48 hr): 4. mm and 2. mm
width of inhibition zone (Saccharomyces cerevisiae [12]; 48 hr): 7. mm
width of inhibition zone (Saccharomyces cerevisiae [12]; 72 hr): 8. mm and 5. mm
MIC ([2]; 48 hr): 25.0 µg/mL (≈ 27.1 µM)
MIC ([2]; 72 hr): 25.0 µg/mL and 50 µg/mL
MIC ([2]; Trichophyton mentagrophytes, 72 h, read-out: MIC): 25 µg/mL (≈ 27.1 µM)

CC(=O)Oc1ccccc1C(=O)O [Aspirin, Acetylsalicylic Acid, reference compound]
inhibition at 250 µM ([14]; Table 8, read-out: inhibition of heat-induced erythrocyte hemolysis): 21%
inhibition at 250 µM ([14]; Table 9 Test 1 (20% RBC), read-out: percent inhibition of heat-induced erythrocyte hemolysis): 21%
inhibition at 500 µM ([14]; Table 9 Test 3 (20% RBC), 5.0 × 10^-4 M, read-out: percent inhibition of heat-induced erythrocyte hemolysis): 40%
inhibition at 500 µM ([14]; 5×10^-4 M, read-out: inhibition of heat-induced red cell hemolysis): 40%
